In patent US9150554B2, “Fused ring inhibitors of hepatitis C” (Presidio Pharmaceuticals, Inc., priority 2009, dated 2015):

These molecules were tested on HCV 1b_Huh-Luc/Neo-ET cell line persistently expressing a bicistronic genotype 1b replicon in Huh 7 cells (assay: HCV replicon assay, luciferase enzyme activity readout). Details: Hepatitis C virus, 72 h incubation, average EC50 range, read-out: Inhibition of HCV genotype 1b.
Type: cell-based
Procedure: Biological activity of the compounds of the invention was determined using an HCV replicon assay. The HCV 1b_Huh-Luc/Neo-ET cell line persistently expressing a bicistronic genotype 1b replicon in Huh 7 cells was obtained from ReBLikon GMBH. This cell line was used to test compound inhibition using luciferase enzyme activity readout as a measurement of compound inhibition of replicon levels.
On Day 1 (the day after plating cells), each compound is added in triplicate to the cells. Plates are incubated for 72 h prior to determining luciferase levels. Enzyme activity was measured using a Bright-Glo Kit (cat. number E2620) manufactured by Promega Corporation. The following equation was used to generate a percent control value for each compound. % Control=(Compound Luciferase Level/Control Luciferase Level)*100
The EC50 value was determined using GraphPad Prism and the following equation: Y=Bottom asymptote+(Top asymptote−Bottom asymptote)/(1+10^((Log EC50−X)*HillSlope))
EC50 values of compounds are determined several times in the replicon assay to generate average EC50 values. […]

**Q.** For `COC(=O)N[C@H](C(=O)N1CCC[C@H]1c1ncc(-c2ccc3nc4cc(-c5cnc([C@@H]6CCCN6C(=O)[C@@H](NC(=O)OC)C(C)C)[nH]5)ccc4nc3c2)[nH]1)C(C)C` [Compound 1], which EC50 is on record?
**A.** < 1 nM

**Q.** How did the EC50 turn out when `COC(=O)N[C@@H](C(=O)N1CCC[C@H]1c1ncc(-c2ccc3nc4cc(-c5cnc([C@@H]6CCCN6C(=O)[C@H](NC(=O)OC)c6ccccc6)[nH]5)ccc4nc3c2)[nH]1)c1ccccc1` [Compound 2] was run?
**A.** < 1 nM

**Q.** `COC(=O)N[C@H](C(=O)N1CCC[C@H]1c1ncc(-c2ccc3c(c2)Oc2ccc(-c4cnc([C@@H]5CCCN5C(=O)[C@@H](NC(=O)OC)C(C)C)[nH]4)cc2O3)[nH]1)C(C)C` [Compound 3] was tested. Which EC50 did it give?
**A.** < 1 nM

**Q.** For `COC(=O)N[C@H](C(=O)N1CCC[C@H]1c1ncc(-c2ccc3c(c2)Cc2cc(-c4cnc([C@@H]5CCCN5C(=O)[C@@H](NC(=O)OC)C(C)C)[nH]4)ccc2O3)[nH]1)C(C)C` [Compound 4], which EC50 is on record?
**A.** 10 to 999 nM

**Q.** For `COC(=O)N[C@@H](C(=O)N1CCC[C@H]1c1ncc(-c2ccc3c(c2)Cc2cc(-c4cnc([C@@H]5CCCN5C(=O)[C@H](NC(=O)OC)c5ccccc5)[nH]4)ccc2O3)[nH]1)c1ccccc1` [Compound 5], which EC50 is on record?
**A.** < 1 nM

**Q.** For `COC(=O)N[C@H](C(=O)N1CCC[C@H]1c1ncc(-c2ccc3c(c2)Cc2ccc(-c4cnc([C@@H]5CCCN5C(=O)[C@@H](NC(=O)OC)C(C)C)[nH]4)cc2O3)[nH]1)C(C)C` [Compound 6], which EC50 is on record?
**A.** < 1 nM

**Q.** `COC(=O)N[C@H](C(=O)N1CCC[C@H]1c1ncc(-c2ccc3c(c2)CCc2cc(-c4cnc([C@@H]5CCCN5C(=O)[C@@H](NC(=O)OC)C(C)C)[nH]4)ccc2O3)[nH]1)C(C)C` [Compound 7] was tested. Which EC50 did it give?
**A.** < 1 nM

**Q.** With `COC(=O)N[C@H](C(=O)N1CCC[C@H]1c1ncc(-c2ccc3c(=O)c4cc(-c5cnc([C@@H]6CCCN6C(=O)[C@@H](NC(=O)OC)C(C)C)[nH]5)ccc4oc3c2)[nH]1)C(C)C` [Compound 8] as the molecule, how does the EC50 read?
**A.** < 1 nM

**Q.** For `CC(C)(C)OC(=O)N1CCC[C@H]1c1ncc(-c2ccc3c(=O)c4cc(-c5cnc([C@@H]6CCCN6C(=O)OC(C)(C)C)[nH]5)ccc4oc3c2)[nH]1` [Compound 9], which EC50 is on record?
**A.** 10 to 999 nM

**Q.** `COC(=O)N[C@H](C(=O)N1CCC[C@H]1c1ncc(-c2ccc3c(c2)Oc2ccc(-c4cnc([C@@H]5CCCN5C(=O)[C@@H](NC(=O)OC)C(C)C)[nH]4)cc2C3(C)C)[nH]1)C(C)C` [Compound 10] was tested. Which EC50 did it give?
**A.** < 1 nM

**Q.** How did the EC50 turn out when `COC(=O)N[C@H](C(=O)N1CCC[C@H]1c1ncc(-c2ccc3c(c2)c(=O)c2ccc(-c4cnc([C@@H]5CCCN5C(=O)[C@@H](NC(=O)OC)C(C)C)[nH]4)cc2n3C)[nH]1)C(C)C` [Compound 11] was run?
**A.** < 1 nM

**Q.** How did the EC50 turn out when `COC(=O)N[C@H](C(=O)N1CCC[C@H]1c1ncc(-c2ccc3c(c2)CCc2ccc(-c4cnc([C@@H]5CCCN5C(=O)[C@@H](NC(=O)OC)C(C)C)[nH]4)cc2O3)[nH]1)C(C)C` [Compound 12] was run?
**A.** < 1 nM

**Q.** `COC(=O)N[C@H](C(=O)N1CCC[C@H]1c1ncc(-c2ccc3c(c2)CN(C)c2ccc(-c4cnc([C@@H]5CCCN5C(=O)[C@@H](NC(=O)OC)C(C)C)[nH]4)cc2CN3C)[nH]1)C(C)C` [Compound 13] was tested. Which EC50 did it give?
**A.** < 1 nM

**Q.** `COC(=O)N[C@H](C(=O)N1CCC[C@H]1c1ncc(-c2ccc3c(c2)Oc2ccc(-c4cnc([C@@H]5CCCN5C(=O)[C@@H](NC(=O)OC)C(C)C)[nH]4)cc2C(=O)N3)[nH]1)C(C)C` [Compound 14] was tested. Which EC50 did it give?
**A.** 10 to 999 nM

**Q.** `COC(=O)N[C@H](C(=O)N1CCC[C@H]1c1ncc(-c2ccc3c(=O)c4cc(-c5cnc([C@@H]6CCCN6C(=O)[C@H](NC(=O)OC)c6ccccc6)[nH]5)ccc4oc3c2)[nH]1)C(C)C` [Compound 15] was tested. Which EC50 did it give?
**A.** < 1 nM

**Q.** How did the EC50 turn out when `COC(=O)N[C@H](C(=O)N1CCC[C@H]1c1ncc(-c2ccc3c(=O)c4cc(-c5cnc([C@@H]6CCCN6C(=O)[C@@H](NC(=O)OC)C6CCOCC6)[nH]5)ccc4oc3c2)[nH]1)C(C)C` [Compound 16] was run?
**A.** < 1 nM

**Q.** How did the EC50 turn out when `COC(=O)N[C@H](C(=O)N1CCC[C@H]1c1ncc(-c2ccc3oc4cc(-c5cnc([C@@H]6CCCN6C(=O)[C@@H](NC(=O)OC)C6CCOCC6)[nH]5)ccc4c(=O)c3c2)[nH]1)C(C)C` [Compound 17] was run?
**A.** < 1 nM

**Q.** How did the EC50 turn out when `COC(=O)N[C@H](C(=O)N1CCC[C@H]1c1ncc(-c2ccc3oc4cc(-c5cnc([C@@H]6CCCN6C(=O)[C@H](NC(=O)OC)c6ccccc6)[nH]5)ccc4c(=O)c3c2)[nH]1)C(C)C` [Compound 18] was run?
**A.** < 1 nM

**Q.** Which EC50 does the source give for `COC(=O)N[C@H](C(=O)N1CCC[C@H]1c1ncc(-c2ccc3c(=O)c4cc(-c5cnc([C@@H]6CCCN6C(=O)[C@H](NC(=O)OC6CCOCC6)c6ccccc6)[nH]5)ccc4oc3c2)[nH]1)C(C)C` [Compound 19] here?
**A.** < 1 nM

**Q.** For `COC(=O)N[C@@H](C)C(=O)N1CCC[C@H]1c1ncc(-c2ccc3oc4cc(-c5cnc([C@@H]6CCCN6C(=O)[C@@H](NC(=O)OC)C(C)C)[nH]5)ccc4c(=O)c3c2)[nH]1` [Compound 20], which EC50 is on record?
**A.** < 1 nM

**Q.** With `COC(=O)N[C@H](C(=O)N1CCC[C@H]1c1ncc(-c2ccc3oc4cc(-c5cnc([C@@H]6CCCN6C(=O)[C@H](NC(=O)OC6CCOCC6)c6ccccc6)[nH]5)ccc4c(=O)c3c2)[nH]1)C(C)C` [Compound 21] as the molecule, how does the EC50 read?
**A.** < 1 nM

**Q.** Which EC50 does the source give for `COC(=O)N[C@H](C(=O)N1CCC[C@H]1c1ncc(-c2ccc3oc4cc(-c5cnc([C@@H]6CCCN6C(=O)[C@@H](NC(=O)OC)C(C)C)[nH]5)c(F)cc4c(=O)c3c2)[nH]1)C(C)C` [Compound 22] here?
**A.** < 1 nM

**Q.** For `COC(=O)N[C@H](C(=O)N1CCC[C@H]1c1ncc(-c2ccc3oc4cc(-c5cnc([C@@H]6CCCN6C(=O)[C@@H](NC(=O)OC)C6CCOCC6)[nH]5)c(F)cc4c(=O)c3c2)[nH]1)C1CCOCC1` [Compound 23], which EC50 is on record?
**A.** < 1 nM

**Q.** For `COC(=O)N[C@@H](C(=O)N1CCC[C@H]1c1ncc(-c2ccc3oc4cc(-c5cnc([C@@H]6CCCN6C(=O)[C@H](NC(=O)OC)c6ccccc6)[nH]5)c(F)cc4c(=O)c3c2)[nH]1)c1ccccc1` [Compound 24], which EC50 is on record?
**A.** < 1 nM

**Q.** For `O=C(N[C@@H](C(=O)N1CCC[C@H]1c1ncc(-c2ccc3oc4cc(-c5cnc([C@@H]6CCCN6C(=O)[C@H](NC(=O)OC6CCOCC6)c6ccccc6)[nH]5)c(F)cc4c(=O)c3c2)[nH]1)c1ccccc1)OC1CCOCC1` [Compound 25], which EC50 is on record?
**A.** < 1 nM

**Q.** Which EC50 does the source give for `COC(=O)N[C@H](C(=O)N1CCC[C@H]1c1ncc(-c2ccc3c(c2)Oc2ccc(-c4cnc([C@@H]5CCCN5C(=O)[C@@H](NC(=O)OC)C(C)C)[nH]4)cc2C32CC2)[nH]1)C(C)C` [Compound 26] here?
**A.** < 1 nM

**Q.** `COC(=O)N[C@H](C(=O)N1CCC[C@H]1c1ncc(-c2cc3oc4ccc(-c5cnc([C@@H]6CCCN6C(=O)[C@H](NC(=O)OC)c6ccccc6)[nH]5)cc4c(=O)c3cc2F)[nH]1)C(C)C` [Compound 27] was tested. Which EC50 did it give?
**A.** < 1 nM

**Q.** `COC(=O)N[C@H](C(=O)N1CCC[C@H]1c1ncc(-c2cc3oc4ccc(-c5cnc([C@@H]6CCCN6C(=O)[C@@H](NC(=O)OC)C6CCOCC6)[nH]5)cc4c(=O)c3cc2F)[nH]1)C(C)C` [Compound 28] was tested. Which EC50 did it give?
**A.** < 1 nM

**Q.** `COC(=O)N[C@H](C(=O)N1CCC[C@H]1c1ncc(-c2cc3c(cc2F)Cc2cc(-c4cnc([C@@H]5CCCN5C(=O)[C@@H](NC(=O)OC)[C@@H](C)OC)[nH]4)ccc2O3)[nH]1)C(C)C` [Compound 29] was tested. Which EC50 did it give?
**A.** < 1 nM

**Q.** `COC(=O)N[C@H](C(=O)N1CCC[C@H]1c1ncc(-c2ccc3c(c2)Cc2ccc(-c4cnc([C@@H]5CCCN5C(=O)[C@@H](NC(=O)OC)[C@@H](C)OC)[nH]4)cc2O3)[nH]1)[C@@H](C)OC` [Compound 30] was tested. Which EC50 did it give?
**A.** < 1 nM

**Q.** Which EC50 does the source give for `CC[C@H](C)[C@H](NC(=O)OC)C(=O)N1CCC[C@H]1c1ncc(-c2ccc3c(c2)Cc2ccc(-c4cnc([C@@H]5CCCN5C(=O)[C@@H](NC(=O)OC)[C@@H](C)CC)[nH]4)cc2O3)[nH]1` [Compound 31] here?
**A.** < 1 nM

**Q.** Which EC50 does the source give for `COC(=O)N[C@H](C(=O)N1CCC[C@H]1c1ncc(-c2ccc3c(c2)Cc2ccc(-c4cnc([C@@H]5CCCN5C(=O)[C@@H](NC(=O)OC)C5CCCC5)[nH]4)cc2O3)[nH]1)C1CCCC1` [Compound 32] here?
**A.** < 1 nM

**Q.** `COC(=O)N[C@H](C(=O)N1CCC[C@H]1c1ncc(-c2ccc3c(c2)Oc2ccc(-c4cnc([C@@H]5CCCN5C(=O)[C@@H](NC(=O)OC)C5CCCC5)[nH]4)cc2O3)[nH]1)C1CCCC1` [Compound 33] was tested. Which EC50 did it give?
**A.** < 1 nM

**Q.** With `COC(=O)N[C@H](C(=O)N1CCC[C@H]1c1ncc(-c2ccc3c(c2)Oc2ccc(-c4cnc([C@@H]5CCCN5C(=O)[C@@H](NC(=O)OC)[C@@H](C)OC)[nH]4)cc2O3)[nH]1)[C@@H](C)OC` [Compound 34] as the molecule, how does the EC50 read?
**A.** < 1 nM

**Q.** How did the EC50 turn out when `COC(=O)N[C@H](C(=O)N1CCC[C@H]1c1ncc(-c2ccc3c(c2)Oc2ccc(-c4cnc([C@@H]5CCCN5C(=O)[C@@H](NC(=O)OC)C5CCOCC5)[nH]4)cc2O3)[nH]1)C1CCOCC1` [Compound 35] was run?
**A.** < 1 nM

**Q.** Which EC50 does the source give for `COC(=O)N[C@H](C(=O)N1CSC[C@H]1c1ncc(-c2ccc3c(c2)Oc2ccc(-c4cnc([C@@H]5CSCN5C(=O)[C@@H](NC(=O)OC)C(C)C)[nH]4)cc2O3)[nH]1)C(C)C` [Compound 36] here?
**A.** < 1 nM

**Q.** With `COC(=O)N[C@@H](C(=O)N1CSC[C@H]1c1ncc(-c2ccc3c(c2)Oc2ccc(-c4cnc([C@@H]5CSCN5C(=O)[C@H](NC(=O)OC)c5ccccc5)[nH]4)cc2O3)[nH]1)c1ccccc1` [Compound 37] as the molecule, how does the EC50 read?
**A.** < 1 nM

**Q.** `COC(=O)N[C@@H](C(=O)N[C@@H](C)c1ncc(-c2ccc3c(c2)Oc2ccc(-c4cnc([C@H](C)NC(=O)[C@H](NC(=O)OC)c5ccccc5)[nH]4)cc2O3)[nH]1)c1ccccc1` [Compound 38] was tested. Which EC50 did it give?
**A.** < 1 nM

**Q.** `COC(=O)N[C@H](C(=O)N[C@@H](C)c1ncc(-c2ccc3c(c2)Oc2ccc(-c4cnc([C@H](C)NC(=O)[C@@H](NC(=O)OC)C(C)C)[nH]4)cc2O3)[nH]1)C(C)C` [Compound 39] was tested. Which EC50 did it give?
**A.** < 1 nM
